Data on seven compounds can be found in ChEMBL document CHEMBL1201862, “PubChem BioAssay data set” (2004).

One assay has as its system H4. In words: Luminescence Cell-Based Dose Response HTS to Identify Activators of 5'UTR Stem-Loop Driven Prion Protein mRNA Translation in H4 Neuroglioblastoma Cells. [Related pubchem assays: 1829 (Project Summary), 1814 (Primary HTS)]. Format: functional. The following applies: Homo sapiens.
The test system of a further assay is HeLa. In words: HeLa cell cytotoxicity, dose response, cytotoxicity control for MITF activator project, CellTiter-Glo luminescence, cherry-pick samples (AID 540259). Format: functional, cell-based. The following applies: Homo sapiens. Background: ATP-based viability assays read luminescence as a measure of living cells.
Assay [1] can be described thus: Luminescence Cell-Based Dose Response HTS to Identify Activators of Luciferase Translation or Activity in H4 […] Cells. [Related pubchem assays: 1829 (Project Summary), 1814 (Primary HTS)]. The class given is functional.
Assay [2] concerns Vero. In words: cells. The following applies: Chlorocebus sabaeus. The class given is functional.
Assay [3] has as its system Vero. In words: Vero cell cytotoxicity, cytotoxicity control for flavivirus capping enzyme inhibitors (AID 588742). The note with it: Chlorocebus sabaeus. Format: functional.
For the next assay, the target named is T1, Protein RecA (Mycobacterium tuberculosis, UniProt P9WHJ3).
T1 sequence (P9WHJ3 whole entry): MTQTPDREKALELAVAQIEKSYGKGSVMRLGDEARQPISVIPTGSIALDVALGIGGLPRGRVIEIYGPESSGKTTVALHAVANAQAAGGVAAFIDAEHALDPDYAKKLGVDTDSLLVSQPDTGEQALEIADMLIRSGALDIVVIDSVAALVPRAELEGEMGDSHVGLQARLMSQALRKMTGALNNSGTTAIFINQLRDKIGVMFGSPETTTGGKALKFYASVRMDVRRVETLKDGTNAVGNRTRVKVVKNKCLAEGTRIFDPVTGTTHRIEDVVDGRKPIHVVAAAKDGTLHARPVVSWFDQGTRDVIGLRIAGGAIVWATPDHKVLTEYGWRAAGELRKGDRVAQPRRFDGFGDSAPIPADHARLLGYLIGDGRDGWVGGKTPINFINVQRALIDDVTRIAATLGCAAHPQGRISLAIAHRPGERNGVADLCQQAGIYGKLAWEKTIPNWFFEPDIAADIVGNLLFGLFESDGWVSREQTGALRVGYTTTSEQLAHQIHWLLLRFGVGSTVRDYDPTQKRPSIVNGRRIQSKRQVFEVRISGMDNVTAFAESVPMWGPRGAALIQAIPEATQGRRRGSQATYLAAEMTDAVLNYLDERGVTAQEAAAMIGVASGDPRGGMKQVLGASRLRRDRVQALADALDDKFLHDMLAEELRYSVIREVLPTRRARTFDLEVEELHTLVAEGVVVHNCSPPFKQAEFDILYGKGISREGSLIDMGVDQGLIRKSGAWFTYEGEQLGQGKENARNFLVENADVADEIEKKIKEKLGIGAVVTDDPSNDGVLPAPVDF
In words: Fluorescence Cell-Free Homogeneous Dose Retest to Identify Inhibitors of RecA-Intein Splicing Activity. [Related pubchem assays (depositor defined):AID2097, AID2223, AID489010, AID492950]. Format: functional.

Assay [4] is described as follows: microbe, parasite or virus in culture. Format: functional. The following applies: Mycobacterium tuberculosis.
Assay [5] has as its system Vero. In words: cells. Format: functional, cell-based. The following applies: Chlorocebus sabaeus.
The target of assay [6] is T2, Replicative DNA helicase DnaB (Mycobacterium tuberculosis, UniProt P9WMR3).
T2 sequence (P9WMR3 whole entry): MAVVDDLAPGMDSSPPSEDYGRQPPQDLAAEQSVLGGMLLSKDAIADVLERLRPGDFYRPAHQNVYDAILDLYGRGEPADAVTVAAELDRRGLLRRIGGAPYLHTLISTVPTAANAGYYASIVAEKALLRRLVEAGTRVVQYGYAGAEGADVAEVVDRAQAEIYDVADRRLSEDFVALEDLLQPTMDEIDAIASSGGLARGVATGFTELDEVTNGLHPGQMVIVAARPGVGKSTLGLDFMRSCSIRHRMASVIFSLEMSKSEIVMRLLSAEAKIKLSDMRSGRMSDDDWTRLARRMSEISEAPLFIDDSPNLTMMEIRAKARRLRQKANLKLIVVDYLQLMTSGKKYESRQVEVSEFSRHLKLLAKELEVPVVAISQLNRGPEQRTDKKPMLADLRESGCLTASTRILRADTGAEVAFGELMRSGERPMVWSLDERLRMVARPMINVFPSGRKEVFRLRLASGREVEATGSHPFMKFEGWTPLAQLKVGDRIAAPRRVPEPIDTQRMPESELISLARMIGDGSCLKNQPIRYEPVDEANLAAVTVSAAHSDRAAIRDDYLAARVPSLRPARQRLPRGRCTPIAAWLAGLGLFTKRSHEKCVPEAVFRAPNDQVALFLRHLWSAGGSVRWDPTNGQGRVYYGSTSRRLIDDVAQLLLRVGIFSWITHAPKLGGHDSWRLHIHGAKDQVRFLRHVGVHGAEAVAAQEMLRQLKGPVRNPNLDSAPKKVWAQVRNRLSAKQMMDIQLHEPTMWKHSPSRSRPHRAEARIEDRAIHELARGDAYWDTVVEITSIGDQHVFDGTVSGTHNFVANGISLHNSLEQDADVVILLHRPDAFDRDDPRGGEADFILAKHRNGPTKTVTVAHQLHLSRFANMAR
In words: DnaB intein splicing inhibitors, dose response, biochemical, cell-free fluorescence (AID 449749). The class given is functional.

For assay [7], the target named is T3, Short transient receptor potential channel 4 (Mus musculus, UniProt Q9QUQ5).
T3 sequence (Q9QUQ5 whole entry): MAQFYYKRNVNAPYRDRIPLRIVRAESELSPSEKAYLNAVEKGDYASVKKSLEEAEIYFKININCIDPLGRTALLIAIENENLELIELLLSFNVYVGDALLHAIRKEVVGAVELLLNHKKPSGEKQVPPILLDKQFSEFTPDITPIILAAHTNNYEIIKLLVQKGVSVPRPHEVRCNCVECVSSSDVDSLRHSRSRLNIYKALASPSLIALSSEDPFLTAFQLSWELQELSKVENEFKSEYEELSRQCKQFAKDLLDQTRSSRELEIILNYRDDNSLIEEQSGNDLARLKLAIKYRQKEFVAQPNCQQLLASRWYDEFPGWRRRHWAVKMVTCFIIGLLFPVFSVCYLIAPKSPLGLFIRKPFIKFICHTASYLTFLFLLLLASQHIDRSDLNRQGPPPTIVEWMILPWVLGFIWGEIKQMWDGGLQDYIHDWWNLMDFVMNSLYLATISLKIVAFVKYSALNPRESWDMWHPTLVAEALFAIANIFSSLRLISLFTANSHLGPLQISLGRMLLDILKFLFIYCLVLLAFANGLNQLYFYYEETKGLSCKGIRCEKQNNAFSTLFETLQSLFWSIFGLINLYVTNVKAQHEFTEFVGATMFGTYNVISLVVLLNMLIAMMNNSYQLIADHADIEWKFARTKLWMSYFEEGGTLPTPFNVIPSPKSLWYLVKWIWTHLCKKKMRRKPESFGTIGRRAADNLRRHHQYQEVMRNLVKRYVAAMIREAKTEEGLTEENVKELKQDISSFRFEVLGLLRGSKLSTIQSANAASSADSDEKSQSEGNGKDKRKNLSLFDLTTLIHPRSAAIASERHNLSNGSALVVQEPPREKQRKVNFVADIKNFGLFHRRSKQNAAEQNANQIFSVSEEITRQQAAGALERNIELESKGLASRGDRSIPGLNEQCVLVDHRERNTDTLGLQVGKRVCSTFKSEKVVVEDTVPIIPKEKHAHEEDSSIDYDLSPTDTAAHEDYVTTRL
In words: mouse TRPC4 channel activators, dose response, cell-based, HEK293 TRPC4/mu-opioid, Fluo-4 calcium (AID 434937). The class given is functional.

Assay [8] has as its target Delta-type opioid receptor (Homo sapiens, UniProt P41143). In words: Counterscreen for agonists of heterodimerization of the mu 1 (OPRM1) and delta 1 (OPRD1) opioid receptors: Luminescence-based cell-based high throughput dose response assay to identify agonists of OPRD1 homodimerization. [Related pubchem assays (depositor defined):AID504326, AID504355, AID504692, AID504904, AID504905]. Format: functional. On the technique in general: Counterscreens check selectivity or assay interference.

The target of assay [9] is 5-hydroxytryptamine receptor 5A (Homo sapiens, UniProt P47898). In words: Counterscreen for agonists of OPRM1-OPRD1 heterodimerization: luminescence-based cell-based high throughput dose response assay to identify agonists of 5-hydroxytryptamine (serotonin) 5A receptor (HTR5A). [Related pubchem assays (depositor defined):AID504326, AID504355, AID504692, AID504904, AID504905]. The class given is functional.
Sequence of 5-hydroxytryptamine receptor 5A (P47898 whole entry): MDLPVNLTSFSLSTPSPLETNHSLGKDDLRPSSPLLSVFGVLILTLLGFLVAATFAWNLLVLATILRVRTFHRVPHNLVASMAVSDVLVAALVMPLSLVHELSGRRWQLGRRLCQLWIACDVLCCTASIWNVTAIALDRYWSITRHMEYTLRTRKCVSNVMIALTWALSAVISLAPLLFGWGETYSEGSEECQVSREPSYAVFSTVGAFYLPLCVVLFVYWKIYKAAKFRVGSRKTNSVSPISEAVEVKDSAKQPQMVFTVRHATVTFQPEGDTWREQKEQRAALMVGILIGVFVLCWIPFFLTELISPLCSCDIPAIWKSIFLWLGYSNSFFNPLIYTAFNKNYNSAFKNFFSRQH

In a further assay the target is Mu-type opioid receptor (Homo sapiens, UniProt P35372). In words: Counterscreen for agonists of heterodimerization of the mu 1 (OPRM1) and delta 1 (OPRD1) opioid receptors: Luminescence-based cell-based high throughput dose response assay to identify agonists of OPRM1 homodimerization. Format: functional.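 Note: U2OS cells expressing OPRM1 and beta-arrestin as split beta-galactosidase partners.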
Sequence of Mu-type opioid receptor (P35372 whole entry): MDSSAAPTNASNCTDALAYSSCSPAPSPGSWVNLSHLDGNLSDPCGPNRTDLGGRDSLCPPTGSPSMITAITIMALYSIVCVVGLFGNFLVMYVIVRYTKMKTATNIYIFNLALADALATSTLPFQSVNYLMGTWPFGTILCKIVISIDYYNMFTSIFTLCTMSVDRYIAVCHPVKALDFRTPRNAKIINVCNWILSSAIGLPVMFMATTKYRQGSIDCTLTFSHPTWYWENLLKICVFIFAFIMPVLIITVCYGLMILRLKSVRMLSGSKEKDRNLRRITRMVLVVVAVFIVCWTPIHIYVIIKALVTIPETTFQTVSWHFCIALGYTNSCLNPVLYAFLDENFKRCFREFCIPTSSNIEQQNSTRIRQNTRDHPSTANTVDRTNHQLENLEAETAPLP

Calls of active or inactive are those of the source.

Sequence of Delta-type opioid receptor (P41143 whole entry): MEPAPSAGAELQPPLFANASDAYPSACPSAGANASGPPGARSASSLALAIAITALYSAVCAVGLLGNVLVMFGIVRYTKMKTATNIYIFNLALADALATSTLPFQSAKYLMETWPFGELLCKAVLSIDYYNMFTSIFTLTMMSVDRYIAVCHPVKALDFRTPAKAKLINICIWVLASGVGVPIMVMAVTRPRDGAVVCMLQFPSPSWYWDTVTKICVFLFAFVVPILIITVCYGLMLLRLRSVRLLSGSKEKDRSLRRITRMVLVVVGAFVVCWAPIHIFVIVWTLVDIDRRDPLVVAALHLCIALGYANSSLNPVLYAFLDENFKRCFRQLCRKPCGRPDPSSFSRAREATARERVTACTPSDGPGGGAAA

In the case of `Clc1cnc(N/N=C/c2cccs2)c(Cl)c1`, the EC50 (as a rule, the midpoint of the concentration-response curve) is 0.136 µM (active) in the assay on H4 and 0.411 µM (active) in [1]. Moreover, in the assay with HeLa, the half-maximal activity concentration (AC50) (usually the midpoint of the concentration-response curve, whichever way the signal moves) was 62.4 µM (active).

`Oc1cc(N=Nc2ccc(Cl)cc2)nc(O)n1`: the CC50 is > 25 µM (active) with Vero [2], 14.8 µM (active) with Vero [3] and 8.44 µM (active) in assay [4]. Moreover, the concentration for a half-maximal effect (EC50) on Protein RecA was 1.2 µM (active). Besides, the IC50 (as a rule, the concentration that inhibits the measured activity by half) with Vero [5] is 21.9 µM (active). Moreover, the AC50 in [6] was 2.37 µM (active).

With `Cc1cc(C)cc(C(=O)N(CCc2ccccc2)C2=CC3CCC(C2)N3C)c1` (configuration not stated), the EC50 in assay [7] is 0.267 µM (active); in assay [8], > 92.5 µM (inactive); in [9], > 92.5 µM (inactive); on Mu-type opioid receptor, 43.9 µM (inactive).

Turning to `CN(C)C(CNC(=O)C1CC(=O)N(Cc2ccccc2)C1)c1ccccc1` (configuration not stated), the EC50 in assay [7] was 1.33 µM (active); in assay [8], > 92.5 µM (inactive); in assay [9], > 92.5 µM (inactive); on Mu-type opioid receptor, > 92.5 µM (inactive).

`O=S(=O)(Cc1cc(-c2ccccc2Cl)no1)c1ccccc1`: the concentration at half-maximal activity (AC50) in the assay on HeLa was 51.8 µM (active).

In the case of `COc1cc(OC)c2c(-c3cccc(/C=C/c4ccc(F)cc4)c3)cc(=O)oc2c1`, in the assay on HeLa, the AC50 was 165 µM (active).

On to `COc1cc(NC(=O)c2cccc(C)c2)ccc1NC(=O)c1cc2ccccc2o1`, for which the EC50 (in assay [8]; in assay [9]; at Mu-type opioid receptor) was > 92.4 µM (inactive) each time.
